Active and inactive are the calls of the source.
Columns and labels:
[1] = molecular target: Genome polyprotein (dengue virus type 2, UniProt P29990); test: Dengue-2 NS5 methyltransferase inhibitors, primary screen, biochemical, confirmation dose response (AID 588689); format: functional
[2] = molecular target: T1, Carboxy-terminal domain RNA polymerase II polypeptide A small phosphatase 1 (Homo sapiens, UniProt Q9GZU7); test: inhibitors of CTDSP1, concentration-response testing, biochemical assay, absorbance-based, actives from ultra-high-throughput screening (AID 540297); format: functional
T1 sequence (Q9GZU7 whole entry): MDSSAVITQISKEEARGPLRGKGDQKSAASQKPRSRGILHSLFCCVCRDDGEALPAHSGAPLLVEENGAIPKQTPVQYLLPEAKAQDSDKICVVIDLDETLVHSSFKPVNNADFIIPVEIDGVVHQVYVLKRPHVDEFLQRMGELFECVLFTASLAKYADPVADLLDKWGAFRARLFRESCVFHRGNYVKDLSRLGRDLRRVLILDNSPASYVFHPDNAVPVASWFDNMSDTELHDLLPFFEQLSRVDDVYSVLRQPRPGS

[3] = molecular target: Envelope glycoprotein gp160 (Human immunodeficiency virus 1, UniProt Q6QLK5); test: inhibitors of HIV fusion peptide binding, primary screen, biochemical, uHTS, fluorescence dequenching (AID 1986)
Chain of Envelope glycoprotein gp160 (Q6QLK5 whole entry, the tested form may be a part): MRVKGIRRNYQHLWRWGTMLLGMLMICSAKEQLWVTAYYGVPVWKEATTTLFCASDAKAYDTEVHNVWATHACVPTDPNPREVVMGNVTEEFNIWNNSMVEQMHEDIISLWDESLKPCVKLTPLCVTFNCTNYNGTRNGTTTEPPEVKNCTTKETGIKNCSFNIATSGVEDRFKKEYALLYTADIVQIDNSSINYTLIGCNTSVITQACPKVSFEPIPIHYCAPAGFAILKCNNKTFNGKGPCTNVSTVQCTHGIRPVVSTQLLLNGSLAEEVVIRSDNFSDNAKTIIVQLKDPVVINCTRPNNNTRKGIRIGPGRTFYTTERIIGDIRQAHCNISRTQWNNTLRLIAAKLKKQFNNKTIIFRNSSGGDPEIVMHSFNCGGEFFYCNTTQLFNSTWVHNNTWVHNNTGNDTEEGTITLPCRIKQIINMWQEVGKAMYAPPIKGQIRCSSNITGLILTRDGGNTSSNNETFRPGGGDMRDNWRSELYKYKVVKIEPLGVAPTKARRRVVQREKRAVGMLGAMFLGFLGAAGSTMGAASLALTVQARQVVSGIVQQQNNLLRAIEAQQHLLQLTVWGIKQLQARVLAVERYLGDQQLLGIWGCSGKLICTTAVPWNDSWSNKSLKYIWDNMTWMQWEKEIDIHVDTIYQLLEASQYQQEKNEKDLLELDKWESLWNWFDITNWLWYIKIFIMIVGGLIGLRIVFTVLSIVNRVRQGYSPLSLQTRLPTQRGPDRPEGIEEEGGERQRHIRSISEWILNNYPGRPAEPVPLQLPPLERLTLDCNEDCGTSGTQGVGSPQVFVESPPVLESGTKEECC

[4] = molecular target: T2, Aminopeptidase N (Plasmodium falciparum FcB1/Columbia, UniProt O96935); test: P. falciparum M1AAP inhibitors, biochemical, fluorogenic H-Leu-NHMec substrate, 1536-well (AID 1445); set-up: species or system Plasmodium falciparum 3D7, 3D7
T2 sequence (O96935 whole entry): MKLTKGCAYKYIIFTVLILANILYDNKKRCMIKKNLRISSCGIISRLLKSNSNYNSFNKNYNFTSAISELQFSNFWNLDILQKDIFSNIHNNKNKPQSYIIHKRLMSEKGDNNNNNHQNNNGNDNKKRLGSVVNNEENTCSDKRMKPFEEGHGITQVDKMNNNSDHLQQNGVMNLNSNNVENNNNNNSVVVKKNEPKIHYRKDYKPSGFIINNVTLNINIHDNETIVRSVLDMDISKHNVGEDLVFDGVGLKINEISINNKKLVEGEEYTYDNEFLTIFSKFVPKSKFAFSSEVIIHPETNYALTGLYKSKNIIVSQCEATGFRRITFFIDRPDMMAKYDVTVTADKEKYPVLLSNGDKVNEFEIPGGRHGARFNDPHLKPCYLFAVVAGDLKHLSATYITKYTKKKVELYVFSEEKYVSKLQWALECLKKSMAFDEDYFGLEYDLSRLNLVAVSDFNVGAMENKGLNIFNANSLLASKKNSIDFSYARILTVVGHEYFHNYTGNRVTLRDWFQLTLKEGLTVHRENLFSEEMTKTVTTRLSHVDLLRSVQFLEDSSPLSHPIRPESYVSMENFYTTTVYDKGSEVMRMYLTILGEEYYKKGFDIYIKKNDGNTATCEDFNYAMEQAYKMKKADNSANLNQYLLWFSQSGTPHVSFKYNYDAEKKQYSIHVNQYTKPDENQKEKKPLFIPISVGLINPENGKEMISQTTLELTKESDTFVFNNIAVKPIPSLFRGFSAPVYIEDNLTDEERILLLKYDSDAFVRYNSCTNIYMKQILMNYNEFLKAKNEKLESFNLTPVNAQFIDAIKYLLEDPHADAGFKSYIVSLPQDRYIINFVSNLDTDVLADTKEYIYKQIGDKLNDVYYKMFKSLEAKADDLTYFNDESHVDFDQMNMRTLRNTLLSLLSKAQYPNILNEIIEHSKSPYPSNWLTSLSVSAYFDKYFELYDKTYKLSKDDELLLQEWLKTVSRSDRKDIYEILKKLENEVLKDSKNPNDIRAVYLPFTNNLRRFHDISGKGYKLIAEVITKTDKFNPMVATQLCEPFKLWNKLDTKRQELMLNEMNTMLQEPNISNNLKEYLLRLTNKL

[5] = molecular target: T3, Probable nicotinate-nucleotide adenylyltransferase (Staphylococcus aureus (strain N315), UniProt P65502); format: functional, Staphylococcus aureus subsp. aureus N315;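 as to IC50 Mean: confirmatory dose-response retesting of NadD inhibitor hits first found in an ultra-high-throughput screen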
T3 sequence (P65502 whole entry): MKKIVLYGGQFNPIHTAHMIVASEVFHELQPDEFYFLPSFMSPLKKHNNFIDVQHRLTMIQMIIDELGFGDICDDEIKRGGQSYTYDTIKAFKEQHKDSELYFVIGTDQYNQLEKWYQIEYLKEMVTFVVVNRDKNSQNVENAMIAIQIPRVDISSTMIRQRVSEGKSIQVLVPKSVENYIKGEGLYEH

[6] = molecular target: T3, Probable nicotinate-nucleotide adenylyltransferase; format: functional, Staphylococcus aureus subsp. aureus N315; details: read-out: IC50_Mean
[7] = cytotoxicity in KRAS-transformed pancreatic duct cells, primary screen, cell-based, fluorescence, HTS (AID 431); format: functional; details: Homo sapiens;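 also: cell line used: HPDE-C7K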
[8] = cytotoxicity in HPDE-C7 cells, cell-based, fluorescence, HTS (AID 430); format: functional; details: Homo sapiens
[9] = molecular target: E3 ubiquitin-protein ligase Mdm2/Protein Mdm4 (Homo sapiens, UniProt O15151+Q00987); test: Mdm2-MdmX interaction inhibitors, dose response, luminescence detection (AID 504593); format: functional
Chain of E3 ubiquitin-protein ligase Mdm2/Protein Mdm4 (Q00987 whole entry): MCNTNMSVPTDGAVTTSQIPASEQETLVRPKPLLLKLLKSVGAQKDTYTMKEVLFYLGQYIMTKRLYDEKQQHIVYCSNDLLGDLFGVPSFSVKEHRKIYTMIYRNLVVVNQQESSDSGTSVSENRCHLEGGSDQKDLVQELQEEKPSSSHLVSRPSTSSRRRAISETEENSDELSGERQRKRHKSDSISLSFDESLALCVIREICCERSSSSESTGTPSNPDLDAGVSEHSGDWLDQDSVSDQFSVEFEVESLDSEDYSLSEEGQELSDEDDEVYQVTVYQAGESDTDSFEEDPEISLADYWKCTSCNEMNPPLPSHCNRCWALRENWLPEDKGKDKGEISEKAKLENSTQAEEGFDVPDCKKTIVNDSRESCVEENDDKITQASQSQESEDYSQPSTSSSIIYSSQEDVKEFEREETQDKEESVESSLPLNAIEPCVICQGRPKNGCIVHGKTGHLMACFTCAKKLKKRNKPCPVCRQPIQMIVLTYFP
Chain of E3 ubiquitin-protein ligase Mdm2/Protein Mdm4 (O15151 whole entry): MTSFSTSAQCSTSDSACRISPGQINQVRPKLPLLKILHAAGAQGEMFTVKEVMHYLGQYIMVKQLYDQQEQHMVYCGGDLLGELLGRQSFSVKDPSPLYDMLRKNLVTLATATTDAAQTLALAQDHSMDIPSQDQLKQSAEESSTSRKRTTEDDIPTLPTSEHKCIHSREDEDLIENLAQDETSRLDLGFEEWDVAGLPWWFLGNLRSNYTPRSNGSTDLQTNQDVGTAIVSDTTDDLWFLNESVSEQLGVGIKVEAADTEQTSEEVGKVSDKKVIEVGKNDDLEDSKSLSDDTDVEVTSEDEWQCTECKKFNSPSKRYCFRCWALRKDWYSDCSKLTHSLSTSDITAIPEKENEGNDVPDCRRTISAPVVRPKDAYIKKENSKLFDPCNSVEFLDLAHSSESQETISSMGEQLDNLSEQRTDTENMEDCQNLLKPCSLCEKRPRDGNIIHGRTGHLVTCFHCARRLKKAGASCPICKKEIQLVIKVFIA

[10] = molecular target: DNA dC->dU-editing enzyme APOBEC-3G (Homo sapiens, UniProt Q9HC16); format: functional;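 also: Dose-response counterscreen measuring inhibition of APOBEC3G DNA deaminase activity, run while confirming APOBEC3A inhibitors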
Chain of DNA dC->dU-editing enzyme APOBEC-3G (Q9HC16 whole entry): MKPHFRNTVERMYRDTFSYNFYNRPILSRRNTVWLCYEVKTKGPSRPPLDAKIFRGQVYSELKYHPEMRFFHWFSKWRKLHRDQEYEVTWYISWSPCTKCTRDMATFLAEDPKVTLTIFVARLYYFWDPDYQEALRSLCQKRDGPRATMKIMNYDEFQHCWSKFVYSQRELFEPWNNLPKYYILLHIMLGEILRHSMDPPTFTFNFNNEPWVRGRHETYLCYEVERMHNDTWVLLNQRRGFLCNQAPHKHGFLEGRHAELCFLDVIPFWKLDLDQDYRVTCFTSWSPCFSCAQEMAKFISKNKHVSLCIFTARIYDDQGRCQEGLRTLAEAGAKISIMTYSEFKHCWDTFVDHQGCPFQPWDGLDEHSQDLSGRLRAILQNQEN

[11] = molecular target: DNA dC->dU-editing enzyme APOBEC-3A (Homo sapiens, UniProt P31941); test: Dose Response confirmation of small molecule APOBEC3A DNA Deaminase Inhibitors via a fluorescence-based single-stranded DNA deaminase assay. [Related pubchem assays (depositor defined):AID493011, AID493024]; format: functional
Chain of DNA dC->dU-editing enzyme APOBEC-3A (P31941 whole entry): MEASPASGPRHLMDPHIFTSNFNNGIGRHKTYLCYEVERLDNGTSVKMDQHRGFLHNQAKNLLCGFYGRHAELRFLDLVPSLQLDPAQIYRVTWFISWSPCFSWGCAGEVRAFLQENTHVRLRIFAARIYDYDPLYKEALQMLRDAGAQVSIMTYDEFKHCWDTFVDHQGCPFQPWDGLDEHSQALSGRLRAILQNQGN

[12] = tested on: HT-1080; test: cytotoxicity in HT1080 fibrosarcoma cells, cell-based, fluorescence readout (AID 620); format: functional; details: Homo sapiens
[13] = luciferase reporter signal reduction – luminescence, H4-C neuroglioblastoma cells, dose response (AID 2458); format: functional, cell-based;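 also: H4 neuroglioblastoma cells stably carrying a luciferase reporter gene fusion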
[14] = cytotoxicity in HEK-293T cells, dose response, cytotoxicity control for TCR NF-kB inhibitor project, luminescence, T-cell screen hits (AID 489026); format: functional, cell-based;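 also: cells exposed to compound about 14 hours before the viability readout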
[15] = inhibitors of SNCA 5'UTR-driven translation, confirmation, luminescence, H4 neuroglioblastoma cells, dose confirmation (AID 2454); format: functional, cell-based;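 also: H4 neuroglioblastoma cells carrying an alpha-synuclein 5'UTR luciferase reporter; potency for inhibition of the luciferase signal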
[16] = molecular target: Luciferin 4-monooxygenase (Photinus pyralis, UniProt P08659); test: Counter Screen for Luciferase-based Assay Positives. [Related pubchem assays: 620, 618, 411 ]
Chain of Luciferin 4-monooxygenase (P08659 whole entry): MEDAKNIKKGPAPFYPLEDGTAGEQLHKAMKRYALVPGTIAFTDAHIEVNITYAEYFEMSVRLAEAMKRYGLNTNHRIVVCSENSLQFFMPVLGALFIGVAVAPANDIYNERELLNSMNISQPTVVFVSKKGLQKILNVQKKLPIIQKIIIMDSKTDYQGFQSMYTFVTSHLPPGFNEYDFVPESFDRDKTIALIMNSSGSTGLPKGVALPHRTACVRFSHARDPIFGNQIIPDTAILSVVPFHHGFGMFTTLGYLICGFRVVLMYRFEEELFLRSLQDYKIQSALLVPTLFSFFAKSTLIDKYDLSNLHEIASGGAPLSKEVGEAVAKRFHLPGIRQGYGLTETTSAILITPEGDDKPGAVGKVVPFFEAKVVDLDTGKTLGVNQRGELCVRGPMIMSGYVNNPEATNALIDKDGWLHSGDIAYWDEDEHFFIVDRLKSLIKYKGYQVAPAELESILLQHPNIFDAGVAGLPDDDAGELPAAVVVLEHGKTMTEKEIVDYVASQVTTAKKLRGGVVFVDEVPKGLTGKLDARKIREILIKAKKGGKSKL

[17] = inhibitors of SNCA 5'UTR-driven reporter translation, confirmation, H4 neuroglioma cells, luminescence (AID 1988); format: functional, cell-based
[18] = Luminescence Cell-Based Dose Response HTS to Identify Inhibitors of 5'UTR Stem-Loop Driven Prion Protein mRNA Translation in H4 Neuroglioblastoma Cells. [Related pubchem assays: 1827 (Project Summary), 1813 (Primary HTS)]; format: functional
[19] = cells; format: functional, cell-based
[20] = molecular target: T4, Heat shock factor protein 1 (Mus musculus, UniProt P38532); test: inhibition of MG132-induced HSE-luciferase signal, confirmation, cell-based, NIH3T3, luminescence, dose retest (AID 2382); format: functional;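 also: NIH3T3 fibroblasts with HSF1-driven luciferase reporter stressed by proteasome inhibitor MG132; luminescence from HSF1-driven luciferase expression after 8 hours of MG132 stress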
T4 sequence (P38532 whole entry): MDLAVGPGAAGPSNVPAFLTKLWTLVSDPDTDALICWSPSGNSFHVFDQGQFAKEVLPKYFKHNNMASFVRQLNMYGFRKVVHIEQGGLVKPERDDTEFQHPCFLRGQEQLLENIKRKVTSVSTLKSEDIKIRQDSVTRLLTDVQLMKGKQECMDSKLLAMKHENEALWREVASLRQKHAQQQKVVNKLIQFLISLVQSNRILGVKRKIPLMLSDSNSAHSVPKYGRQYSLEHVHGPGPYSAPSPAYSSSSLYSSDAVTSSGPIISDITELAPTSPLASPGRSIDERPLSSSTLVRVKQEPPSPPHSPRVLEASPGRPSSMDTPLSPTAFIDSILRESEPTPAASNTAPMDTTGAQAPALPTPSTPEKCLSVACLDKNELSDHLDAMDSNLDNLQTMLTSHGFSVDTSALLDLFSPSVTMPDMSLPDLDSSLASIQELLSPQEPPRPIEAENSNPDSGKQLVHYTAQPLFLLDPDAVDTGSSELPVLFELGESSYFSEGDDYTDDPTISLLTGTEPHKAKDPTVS

[21] = inhibitors of firefly luciferase expression or activity, dose response, H4 neuroglioma cells, luminescence (AID 1990); format: functional, cell-based

Chain of Genome polyprotein (P29990 2492-3391 limits assumed): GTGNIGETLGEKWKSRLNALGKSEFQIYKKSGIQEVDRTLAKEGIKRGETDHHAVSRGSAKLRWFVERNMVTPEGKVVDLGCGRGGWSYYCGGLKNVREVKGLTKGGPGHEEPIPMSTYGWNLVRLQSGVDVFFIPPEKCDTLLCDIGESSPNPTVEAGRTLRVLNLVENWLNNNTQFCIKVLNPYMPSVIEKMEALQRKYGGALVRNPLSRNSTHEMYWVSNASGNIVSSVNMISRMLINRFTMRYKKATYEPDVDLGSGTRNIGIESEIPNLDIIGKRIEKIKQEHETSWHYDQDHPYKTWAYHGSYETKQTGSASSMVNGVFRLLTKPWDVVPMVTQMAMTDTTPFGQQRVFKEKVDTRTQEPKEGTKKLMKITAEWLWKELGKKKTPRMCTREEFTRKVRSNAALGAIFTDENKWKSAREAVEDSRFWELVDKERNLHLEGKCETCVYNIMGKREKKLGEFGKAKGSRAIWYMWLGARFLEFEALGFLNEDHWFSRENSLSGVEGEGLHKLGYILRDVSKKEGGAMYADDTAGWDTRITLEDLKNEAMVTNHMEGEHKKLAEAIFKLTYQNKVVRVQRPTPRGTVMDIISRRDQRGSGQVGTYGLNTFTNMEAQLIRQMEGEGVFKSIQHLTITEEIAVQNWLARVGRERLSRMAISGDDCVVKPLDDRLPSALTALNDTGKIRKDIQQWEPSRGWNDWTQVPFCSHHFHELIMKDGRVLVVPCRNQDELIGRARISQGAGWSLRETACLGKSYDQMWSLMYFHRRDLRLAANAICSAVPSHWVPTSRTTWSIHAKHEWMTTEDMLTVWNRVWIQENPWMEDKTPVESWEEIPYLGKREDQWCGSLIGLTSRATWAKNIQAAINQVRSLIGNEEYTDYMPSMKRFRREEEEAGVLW

O=C(O)CCN1C(=O)/C(=C2\C(=O)N(Cc3ccc(F)cc3)c3ccccc32)SC1=S
IC50 [1]: 41.2 µM (active) | IC50 [2]: 3.03 µM (active) | IC50 [3]: > 99 µM (inactive)

CCc1nnc(NS(=O)(=O)c2ccc(NC(=S)NC(=O)/C=C/c3ccc(F)cc3)cc2)s1
IC50 [1]: 39.3 µM (active) | IC50 [4]: 76.7 µM (active) | IC50 [5]: 4.58 µM (active) | IC50 [3]: 18.3 µM (active) | IC50 [6]: 45.4 µM (active)

COc1ccc2c(c1)C1(Nc3ccccc3-c3nc4ccccc4n31)C(=O)N2C (centres undefined)
EC50 [7]: > 20 µM (not active) | EC50 [8]: > 20 µM (not active) | IC50 [9]: 2.85 µM (active)

COc1ccc(C)cc1NC(=O)CCCN1C(=O)NC(C)(C)C1=O
IC50 [10]: 11.9 µM (active) | IC50 [11]: 11 µM (active)

COCCn1c(C)cc(C2=NN=C(Nc3ccccc3F)SC2)c1C
EC50 [12]: > 50 µM (not active) | EC50 [13]: 1.3 µM (active) | IC50 [14]: > 80 µM (inactive) | EC50 [15]: 1.69 µM (active) | EC50 [16]: 2.67 µM (active) | IC50 [9]: 1.33 µM (active) | EC50 [17]: < 0.1 µM (active) | EC50 [18]: < 0.1 µM (active) | EC50 [19]: > 12 µM (not active) | EC50 [20]: < 0.16 µM (active) | EC50 [21]: 8.18 µM (active)

From ChEMBL document CHEMBL1201862, “PubChem BioAssay data set” (2004)
